According to US7648989B2, “Indolylmaleimide derivatives as PKC inhibitors” (Novartis AG, priority 2004, dated 2010):

Tests used:
Human recombinant PKCε = biological target: T1, Human recombinant PKCε (Homo sapiens, UniProt Q02156); experiment: Protein Kinase Cε assay; assay type: biochemical; details: selectivity ratio relative to PKCα
T1 construct: purchased Oxford Biomedical Research
T1 sequence (Q02156 1-737): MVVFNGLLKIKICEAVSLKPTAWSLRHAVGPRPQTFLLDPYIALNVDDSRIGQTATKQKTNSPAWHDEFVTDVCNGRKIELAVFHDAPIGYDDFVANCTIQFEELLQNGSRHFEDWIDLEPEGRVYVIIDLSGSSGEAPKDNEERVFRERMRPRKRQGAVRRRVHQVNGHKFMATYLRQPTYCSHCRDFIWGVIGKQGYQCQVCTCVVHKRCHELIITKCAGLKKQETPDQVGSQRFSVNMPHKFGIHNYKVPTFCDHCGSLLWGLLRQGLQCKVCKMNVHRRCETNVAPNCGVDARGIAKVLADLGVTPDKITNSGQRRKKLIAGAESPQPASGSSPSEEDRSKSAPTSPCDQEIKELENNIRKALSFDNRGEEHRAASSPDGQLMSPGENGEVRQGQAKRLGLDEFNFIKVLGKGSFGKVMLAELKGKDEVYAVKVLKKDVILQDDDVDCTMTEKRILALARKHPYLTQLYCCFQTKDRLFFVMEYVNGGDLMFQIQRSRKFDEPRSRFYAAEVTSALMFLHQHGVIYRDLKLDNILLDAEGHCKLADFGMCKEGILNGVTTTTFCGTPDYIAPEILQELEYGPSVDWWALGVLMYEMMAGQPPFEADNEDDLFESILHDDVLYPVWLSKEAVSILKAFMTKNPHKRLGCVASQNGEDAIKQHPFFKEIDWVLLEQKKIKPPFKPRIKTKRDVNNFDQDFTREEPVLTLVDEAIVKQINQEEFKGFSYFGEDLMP
Procedure: (§1) The compounds of the invention are tested for their activity on different PKC isoforms according to the following method. Assay is performed in a white with clear bottom 384-well microtiterplate with non-binding surface. The reaction mixture (25 μl) contains 1.5 μM of a tridecapeptide acceptor substrate that mimics the pseudo substrate sequence of PKC α with the Ala→Ser replacement, 10 μM ^33P-ATP, 10 mM Mg(NO3)2, 0.2 mM CaCl2, PKC at a protein concentration varying from 25 to 400 ng/ml (depending on the isotype used), lipid vesicles (containing 30 mol % phosphatidylserine, 5 mol % DAG and 65 mol % phosphatidylcholine) at a final lipid concentration of 0.5 mM, in 20 mM Tris-HCl buffer pH 7.4+0.1% BSA. Incubation is performed for 60 min at room temperature.
Human recombinant PKCε is obtained from Oxford Biomedical Research and is used under the assay conditions as described under Section A.1 above.

Human recombinant PKCβ1 = biological target: T2, Human recombinant PKCβ1 (Homo sapiens, UniProt P05771); experiment: Protein Kinase Cβ1 assay; assay type: biochemical; details: selectivity ratio relative to PKCα
T2 construct: purchased Oxford Biomedical Research
T2 sequence (P05771 whole entry): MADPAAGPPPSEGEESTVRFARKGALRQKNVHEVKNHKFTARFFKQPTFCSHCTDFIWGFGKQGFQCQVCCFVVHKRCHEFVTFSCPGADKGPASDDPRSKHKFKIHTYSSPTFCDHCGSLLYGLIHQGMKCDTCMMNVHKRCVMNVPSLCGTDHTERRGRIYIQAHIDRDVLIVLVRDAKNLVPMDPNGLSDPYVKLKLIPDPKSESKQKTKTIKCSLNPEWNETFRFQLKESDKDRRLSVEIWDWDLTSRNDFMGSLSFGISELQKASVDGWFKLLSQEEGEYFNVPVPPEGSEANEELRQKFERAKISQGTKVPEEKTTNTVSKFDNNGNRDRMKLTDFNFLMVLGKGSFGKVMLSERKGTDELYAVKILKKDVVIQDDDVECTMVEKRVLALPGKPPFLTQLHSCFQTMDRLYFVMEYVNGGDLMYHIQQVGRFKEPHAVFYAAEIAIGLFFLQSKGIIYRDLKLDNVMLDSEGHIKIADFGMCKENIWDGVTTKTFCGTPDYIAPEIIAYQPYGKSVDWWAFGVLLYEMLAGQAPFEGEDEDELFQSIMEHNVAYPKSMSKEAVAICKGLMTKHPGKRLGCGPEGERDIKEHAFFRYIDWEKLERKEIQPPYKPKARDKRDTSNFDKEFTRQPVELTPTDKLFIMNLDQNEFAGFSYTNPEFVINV
Procedure: as §1
Human recombinant PKCβ1 is obtained from Oxford Biomedical Research and is used under the assay conditions as described under Section A.1 above.

Human recombinant PKCθ = Human recombinant PKCθ (Homo sapiens, UniProt Q04759); experiment: Protein Kinase Cθ assay; assay type: biochemical; details: selectivity ratio relative to PKCα
Chain of Human recombinant PKCθ (Q04759 whole entry): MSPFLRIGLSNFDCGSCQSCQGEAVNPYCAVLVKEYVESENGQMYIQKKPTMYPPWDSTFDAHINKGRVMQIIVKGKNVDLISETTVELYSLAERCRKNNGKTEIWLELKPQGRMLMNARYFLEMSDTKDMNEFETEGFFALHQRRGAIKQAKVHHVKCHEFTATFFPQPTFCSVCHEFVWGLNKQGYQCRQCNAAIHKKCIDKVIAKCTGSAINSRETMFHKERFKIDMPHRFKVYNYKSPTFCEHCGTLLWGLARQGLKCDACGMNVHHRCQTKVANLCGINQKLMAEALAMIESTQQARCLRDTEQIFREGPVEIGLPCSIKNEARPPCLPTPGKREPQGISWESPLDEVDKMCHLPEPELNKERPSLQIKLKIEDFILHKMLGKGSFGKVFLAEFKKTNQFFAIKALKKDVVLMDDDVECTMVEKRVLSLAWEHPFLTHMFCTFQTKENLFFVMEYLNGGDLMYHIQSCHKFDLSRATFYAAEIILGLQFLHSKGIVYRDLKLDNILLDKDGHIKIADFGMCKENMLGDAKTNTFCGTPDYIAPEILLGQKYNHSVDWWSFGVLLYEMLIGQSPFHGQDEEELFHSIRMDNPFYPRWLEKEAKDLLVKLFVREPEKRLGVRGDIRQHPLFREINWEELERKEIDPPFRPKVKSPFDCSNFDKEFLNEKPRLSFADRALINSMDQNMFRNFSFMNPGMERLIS
Procedure: as §1
Human recombinant PKCθ is used under the assay conditions as described above.

Human recombinant PKCη = biological target: T3, Human recombinant PKCη (Homo sapiens, UniProt P24723); experiment: Protein Kinase Cη assay; assay type: biochemical; details: selectivity ratio relative to PKCα
T3 construct: purchased PanVera
T3 sequence (P24723 whole entry): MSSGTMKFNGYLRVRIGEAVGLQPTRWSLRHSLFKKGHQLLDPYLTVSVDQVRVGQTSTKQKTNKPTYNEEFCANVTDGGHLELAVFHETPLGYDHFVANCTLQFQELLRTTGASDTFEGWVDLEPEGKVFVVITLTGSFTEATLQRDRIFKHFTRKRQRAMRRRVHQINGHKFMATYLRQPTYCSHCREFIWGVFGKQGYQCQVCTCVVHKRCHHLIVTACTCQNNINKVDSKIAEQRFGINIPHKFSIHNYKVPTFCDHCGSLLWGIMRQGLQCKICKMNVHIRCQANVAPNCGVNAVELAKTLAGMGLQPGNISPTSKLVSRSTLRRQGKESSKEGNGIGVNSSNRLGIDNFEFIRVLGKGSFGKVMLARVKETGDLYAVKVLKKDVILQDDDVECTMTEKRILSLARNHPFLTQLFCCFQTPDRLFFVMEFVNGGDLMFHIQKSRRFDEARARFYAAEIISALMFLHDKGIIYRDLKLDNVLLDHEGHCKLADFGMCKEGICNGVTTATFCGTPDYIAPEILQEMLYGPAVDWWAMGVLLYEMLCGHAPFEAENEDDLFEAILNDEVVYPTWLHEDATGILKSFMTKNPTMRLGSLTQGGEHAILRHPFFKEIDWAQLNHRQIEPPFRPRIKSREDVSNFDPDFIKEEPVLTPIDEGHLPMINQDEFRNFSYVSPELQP
Procedure: as §1
Human recombinant PKCη is obtained from PanVera and is used under the assay conditions as described under Section A.1 above.

[1] = tested on: spleen cells from CBA and BALB/c mice (MLR); bone marrow cells from CBA mice (BM); experiment: Allogeneic Mixed Lymphocyte Reaction (MLR) assay compared with Bone Marrow Proliferative (BM) assay; assay type: cell-based; details: mouse MLR and mouse bone marrow proliferation, 3H-thymidine incorporation
Procedure: Bone marrow cells from CBA mice (2.5×10^4 cells per well in flat bottom tissue culture microtiter plates) are incubated in 100 μl RPMI medium containing 10% FCS, 100 U/ml penicillin, 100 μg/ml streptomycin (Gibco BRL, Basel, Switzerland), 50 μM 2-mercaptoethanol (Fluka, Buchs, Switzerland), WEHI-3 conditioned medium (7.5% v/v) and L929 conditioned medium (3% v/v) as a source of growth factors and serially diluted compounds. Seven three-fold dilution steps in duplicates per test compound are performed. After four days of incubation 1 μCi ^3H-thymidine is added. Cells are harvested after an additional five-hour incubation period, and incorporated ^3H-thymidine is determined according to standard procedures. Conditioned media are prepared as follows. WEHI-3 cells (ATCC TIB68) and L929 cells (ATCC CCL 1) are grown in RPMI medium until confluence for 4 days and one week, respectively. […]
Briefly, spleen cells from CBA and BALB/c mice (1.6×10^5 cells from each strain per well in flat bottom tissue culture microtiter plates, 3.2×10^5 in total) are incubated in RPMI medium containing 10% FCS, 100 U/ml penicillin, 100 μg/ml streptomycin (Gibco BRL, Basel, Switzerland), 50 μM 2-mercaptoethanol (Fluka, Buchs, Switzerland) and serially diluted compounds. […] Cells are harvested after an additional five-hour incubation period, and incorporated ^3H-thymidine is determined according to standard procedures. […]

Human recombinant PKCδ = biological target: T4, Human recombinant PKCδ (Homo sapiens, UniProt Q05655); experiment: Protein Kinase Cδ assay; assay type: biochemical; details: selectivity ratio relative to PKCα
T4 construct: purchased Oxford Biomedical Research
T4 sequence (Q05655 whole entry): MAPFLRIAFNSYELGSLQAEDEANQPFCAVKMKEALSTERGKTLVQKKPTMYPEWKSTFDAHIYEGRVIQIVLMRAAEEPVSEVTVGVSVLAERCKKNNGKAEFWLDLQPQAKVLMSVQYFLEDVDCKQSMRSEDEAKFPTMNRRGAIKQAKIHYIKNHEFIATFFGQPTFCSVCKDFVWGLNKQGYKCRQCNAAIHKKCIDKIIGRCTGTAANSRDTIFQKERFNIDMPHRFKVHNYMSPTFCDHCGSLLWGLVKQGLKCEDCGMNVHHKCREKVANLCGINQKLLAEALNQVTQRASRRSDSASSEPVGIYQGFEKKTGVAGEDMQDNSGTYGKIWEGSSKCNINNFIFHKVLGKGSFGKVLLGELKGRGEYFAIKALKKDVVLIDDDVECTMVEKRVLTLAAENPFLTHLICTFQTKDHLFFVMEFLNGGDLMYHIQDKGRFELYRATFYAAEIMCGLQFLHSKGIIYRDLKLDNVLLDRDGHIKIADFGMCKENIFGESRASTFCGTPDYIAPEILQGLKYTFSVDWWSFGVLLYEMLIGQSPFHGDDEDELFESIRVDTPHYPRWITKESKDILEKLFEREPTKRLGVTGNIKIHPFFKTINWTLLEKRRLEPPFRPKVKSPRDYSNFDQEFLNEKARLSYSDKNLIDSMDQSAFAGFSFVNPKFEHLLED
Procedure: as §1
Human recombinant PKCδ is obtained from Oxford Biomedical Research and is used under the assay conditions as described under Section A.1 above.

Row | Compound | ε/α: ratio of the IC50 value for PKC ε to the IC50 value for PKCα (Human recombinant PKCε) | β/α: ratio of the IC50 value for PKC β to the IC50 value for PKCα (Human recombinant PKCβ1) | θ/α: ratio of the IC50 value for PKC θ to the IC50 value for PKCα (Human recombinant PKCθ) | η/α: ratio of the IC50 value for PKC η to the IC50 value for PKCα (Human recombinant PKCη) | MLR/BM: ratio of the IC50 value as determined by the MLR assay to the IC50 value as determined by the BM assay [1] | δ/α: ratio of the IC50 value for PKC δ to the IC50 value for PKCα (Human recombinant PKCδ)
1 | CN(C)Cc1ccc2ccc(Cl)c(C3=C(c4cn(C)c5ccccc45)C(=O)NC3=O)c2c1 [Example 1, 3-(2-Chloro-7-dimethylaminomethyl-naphthalen-1-yl)-4-(1-methyl-1H-indol-3-yl)-pyrrole-2,5-dione] | 122.6 | 1.2 | 90.8 | 140.2 | 21.6 | 66.4
2 | Cn1c2ccccc2c2c3c(c4c5ccccc5n(CCC#N)c4c21)CNC3=O [Example 47, Gö 6976] | 45.8 | 5.3 | 222.3 | 118.7 | 2.1 | 120.5
